# From patent US8796289B2 (AbbVie Inc., priority 2011, dated 2014)
# Target: GST-tagged-Wee1 kinase (Homo sapiens, UniProt P30291)
# Experiment: Wee1 time-resolved fluorescence equilibrium binding assay (displacement of Oregon Green-labeled ATP-competitive kinase probe)
# Description: Wee1 kinase was assayed using a time-resolved fluorescence equilibrium binding assay monitoring displacement of a rapidly reversible Oregon Green-labeled ATP-competitive kinase probe (N-(2-(2-(2-(4-(4-(5-chloro-4-(2-(1-hydroxycyclobutyl)thiazol-5-yl)-1H-pyrrolo[2,3-b]pyridin-2-yl)phenyl)piperazin-1-yl)ethoxy)ethoxy)ethyl)-2′,7′-difluoro-3′,6′-dihydroxy-3-oxo-3H-spiro[isobenzofuran-1,9′-xanthene]-5-carboxamide) by competitive Wee1 inhibitors.
# Chain of GST-tagged-Wee1 kinase (P30291 whole entry): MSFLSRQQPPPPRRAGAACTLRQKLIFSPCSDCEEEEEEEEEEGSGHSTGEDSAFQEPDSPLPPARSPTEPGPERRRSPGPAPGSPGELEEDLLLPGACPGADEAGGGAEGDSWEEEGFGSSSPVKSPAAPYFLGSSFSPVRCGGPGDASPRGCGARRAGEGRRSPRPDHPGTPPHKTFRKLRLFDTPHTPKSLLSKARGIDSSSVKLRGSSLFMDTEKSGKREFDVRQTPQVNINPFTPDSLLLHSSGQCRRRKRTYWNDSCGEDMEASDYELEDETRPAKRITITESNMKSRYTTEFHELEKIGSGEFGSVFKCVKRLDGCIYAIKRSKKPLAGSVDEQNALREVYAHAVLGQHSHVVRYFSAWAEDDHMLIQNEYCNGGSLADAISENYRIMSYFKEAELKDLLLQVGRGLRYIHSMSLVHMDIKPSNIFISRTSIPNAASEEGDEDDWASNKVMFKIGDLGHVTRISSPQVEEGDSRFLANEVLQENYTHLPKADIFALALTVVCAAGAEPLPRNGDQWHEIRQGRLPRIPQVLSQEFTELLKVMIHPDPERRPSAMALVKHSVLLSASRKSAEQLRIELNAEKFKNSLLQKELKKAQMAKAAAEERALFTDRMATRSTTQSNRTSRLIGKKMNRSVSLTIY
row,Structure (SMILES),Ki
1,"CCc1nn(-c2c(Cl)cccc2Cl)c(=O)c2cnc(Nc3ccc4c(c3)CNCC4(C)C)nc12 [Example 462, 6-(2,6-dichlorophenyl)-2-[(4,4-dimethyl-1,2,3,4-tetrahydroisoquinolin-7-yl)amino]-8-ethylpyrimido[4,5-d]pyridazin-5(6H)-one]",0.95 nM
2,"CS(=O)(=O)N1Cc2cc(Nc3ncc4c(=O)n(-c5c(Cl)cccc5Cl)nc(-c5ccccn5)c4n3)ccc2C2(CC2)C1 [Example 377, 6-(2,6-dichlorophenyl)-2-{[2′-(methylsulfonyl)-2′,3′-dihydro-1′H-spiro[cyclopropane-1,4′-isoquinolin]-7′-yl]amino}-8-(pyridin-2-yl)pyrimido[4,5-d]pyridazin-5(6H)-one]",1.3 nM
3,"CN1Cc2cc(Nc3ncc4c(=O)n(-c5ccncc5)nc(-c5ccccn5)c4n3)ccc2C(C)(C)C1 [Example 239, 8-(pyridin-2-yl)-6-(pyridin-4-yl)-2-[(2,4,4-trimethyl-1,2,3,4-tetrahydroisoquinolin-7-yl)amino]pyrimido[4,5-d]pyridazin-5(6H)-one]",25 nM
4,"CCCc1nn(-c2ccccc2)c(=O)c2cnc(Nc3ccc(N4CCN(C)CC4)cc3)nc12 [Example 17, 2-{[4-(4-methylpiperazin-1-yl)phenyl]amino}-6-phenyl-8-propylpyrimido[4,5-d]pyridazin-5(6H)-one]",36 nM
5,"Cc1nn(-c2c(Cl)cccc2Cl)c(=O)c2cnc(Nc3ccc(N4CCNCC4)cc3)nc12 [Example 393, 6-(2,6-dichlorophenyl)-8-methyl-2-{[4-(piperazin-1-yl)phenyl]amino}pyrimido[4,5-d]pyridazin-5(6H)-one]",1 nM
6,"CN1CCN(c2ccc(Nc3ncc4c(=O)n(-c5c(Cl)cccc5Cl)nc(-c5cccnc5Cl)c4n3)cc2)CC1 [Example 81, 8-(2-chloropyridin-3-yl)-6-(2,6-dichlorophenyl)-2-{[4-(4-methylpiperazin-1-yl)phenyl]amino}pyrimido[4,5-d]pyridazin-5(6H)-one]",4 nM
7,"Cc1nn(-c2c(Cl)cccc2Cl)c(=O)c2cnc(Nc3cccc(N4CCCCC4)c3)nc12 [Example 504, 6-(2,6-dichlorophenyl)-8-methyl-2-{[3-(piperidin-1-yl)phenyl]amino}pyrimido[4,5-d]pyridazin-5(6H)-one]",3.7 nM
8,"CC(O)Cn1nc(-c2ccccn2)c2nc(Nc3ccc(N4CCNCC4)cc3)ncc2c1=O (stereo not shown) [Example 289, 6-(2-hydroxypropyl)-2-{[4-(piperazin-1-yl)phenyl]amino}-8-(pyridin-2-yl)pyrimido[4,5-d]pyridazin-5(6H)-one]",81 nM
9,"C=CCn1nc(-c2ccco2)c2nc(Nc3ccc(S(=O)(=O)N4CCOCC4)cc3)ncc2c1=O [Example 140, 6-allyl-8-(2-furyl)-2-{[4-(morpholin-4-ylsulfonyl)phenyl]amino}pyrimido[4,5-d]pyridazin-5(6H)-one]",> 3140 nM
10,"CN1CCN(c2ccc(Nc3ncc4c(=O)n(C)nc(C5CC(F)(F)C5)c4n3)cc2)CC1 [Example 187, 8-(3,3-difluorocyclobutyl)-6-methyl-2-{[4-(4-methylpiperazin-1-yl)phenyl]amino}pyrimido[4,5-d]pyridazin-5(6H)-one]",1800 nM
11,"Cn1cnc(-c2nn(-c3c(Cl)cccc3Cl)c(=O)c3cnc(Nc4ccc5c(c4)CNCC54CC4)nc23)c1 [Example 341, 6-(2,6-dichlorophenyl)-2-(2′,3′-dihydro-1′H-spiro[cyclopropane-1,4′-isoquinolin]-7′-ylamino)-8-(1-methyl-1H-imidazol-4-yl)pyrimido[4,5-d]pyridazin-5(6H)-one]",1 nM
12,"Cc1ccccc1-n1nc(CCc2ccccc2)c2nc(Nc3ccc(N4CCN(C)CC4)cc3)ncc2c1=O [Example 12, 6-(2-methylphenyl)-2-{[4-(4-methylpiperazin-1-yl)phenyl]amino}-8-(2-phenylethyl)pyrimido[4,5-d]pyridazin-5(6H)-one]",6 nM
13,"CCC(O)(CC)c1cccc(-c2nn(-c3c(Cl)cccc3Cl)c(=O)c3cnc(Nc4ccc(N5CCN(C)CC5)cc4)nc23)n1 [Example 176, 6-(2,6-dichlorophenyl)-8-[6-(3-hydroxypentan-3-yl)pyridin-2-yl]-2-{[4-(4-methylpiperazin-1-yl)phenyl]amino}pyrimido[4,5-d]pyridazin-5(6H)-one]",36 nM
14,"CN1CCN(c2ccc(Nc3ncc4c(=O)n(-c5ccccc5Cl)nc(-c5cccnc5Cl)c4n3)cc2)CC1 [Example 80, 6-(2-chlorophenyl)-8-(2-chloropyridin-3-yl)-2-{[4-(4-methylpiperazin-1-yl)phenyl]amino}pyrimido[4,5-d]pyridazin-5(6H)-one]",27 nM

# Compounds with a lower Ki, results first:
row,Ki,Structure (SMILES)
1,0.54 nM,"Cc1nn(-c2c(Cl)cccc2Cl)c(=O)c2cnc(Nc3cccc(N4CCNCC4)c3)nc12 [Example 506, 6-(2,6-dichlorophenyl)-8-methyl-2-{[3-(piperazin-1-yl)phenyl]amino}pyrimido[4,5-d]pyridazin-5(6H)-one]"
2,0.5 nM,"Cc1nn(-c2c(Cl)cncc2Cl)c(=O)c2cnc(Nc3ccc4c(c3)CCNC4)nc12 [Example 448, 6-(3,5-dichloropyridin-4-yl)-8-methyl-2-(1,2,3,4-tetrahydroisoquinolin-6-ylamino)pyrimido[4,5-d]pyridazin-5(6H)-one]"
3,0.4 nM,"Cc1cccc(-c2nn(-c3ccccc3Cl)c(=O)c3cnc(Nc4ccc(N5CCN(C)CC5)cc4)nc23)c1 [Example 51, 6-(2-chlorophenyl)-8-(3-methylphenyl)-2-{[4-(4-methylpiperazin-1-yl)phenyl]amino}pyrimido[4,5-d]pyridazin-5(6H)-one]"
4,0.25 nM,"O=c1c2cnc(Nc3ccc(N4CCNCC4)cc3)nc2c(-c2nccs2)nn1-c1c(Cl)cccc1Cl [Example 344, 6-(2,6-dichlorophenyl)-2-{[4-(piperazin-1-yl)phenyl]amino}-8-(1,3-thiazol-2-yl)pyrimido[4,5-d]pyridazin-5(6H)-one]"
5,0.2 nM,"CN1Cc2cc(Nc3ncc4c(=O)n(-c5c(Cl)cccc5Cl)nc(CO)c4n3)ccc2C2(CC2)C1 [Example 432, 6-(2,6-dichlorophenyl)-8-(hydroxymethyl)-2-[(2′-methyl-2′,3′-dihydro-1′H-spiro[cyclopropane-1,4′-isoquinolin]-7′-yl)amino]pyrimido[4,5-d]pyridazin-5(6H)-one]"
6,0.15 nM,"O=c1c2cnc(Nc3ccc4c(c3)CNCC43CC3)nc2c(CO)nn1-c1c(Cl)cccc1Cl [Example 433, 6-(2,6-dichlorophenyl)-2-(2′,3′-dihydro-1′H-spiro[cyclopropane-1,4′-isoquinolin]-7′-ylamino)-8-(hydroxymethyl)pyrimido[4,5-d]pyridazin-5(6H)-one]"
7,0.1 nM,"Cc1nn(-c2c(Cl)cccc2Cl)c(=O)c2cnc(Nc3ccc(OC4CCN(C)CC4)cc3)nc12 [Example 503, 6-(2,6-dichlorophenyl)-8-methyl-2-({4-[(1-methylpiperidin-4-yl)oxy]phenyl}amino)pyrimido[4,5-d]pyridazin-5(6H)-one]"
8,0.02 nM,"CN1CCN(C(=O)c2cccc(-c3nn(-c4c(Cl)cccc4Cl)c(=O)c4cnc(Nc5ccc(N6CCN(C)CC6)cc5)nc34)c2)CC1 [Example 192, 6-(2,6-dichlorophenyl)-8-{3-[(4-methylpiperazin-1-yl)carbonyl]phenyl}-2-{[4-(4-methylpiperazin-1-yl)phenyl]amino}pyrimido[4,5-d]pyridazin-5(6H)-one]"
